The source of these data is patent US5196438A, “Amino acid derivatives” (Hoffmann-La Roche Inc., priority 1989, dated 1993).

The target of one assay is HIV protease (Human immunodeficiency virus type 1 group M subtype B, UniProt P04585). Put plainly: In vitro inhibition of HIV protease (spectrophotometric assay of N-terminal proline from peptide substrate cleavage). It counts as biochemical. Conditions: citrate buffer pH 5.5, 37° C. As for the experimental part: HIV protease was expressed in E. coli and partially purified from soluble extracts of the bacterium by ammonium sulphate fractionation (0-30%). […] Cleavage of the substrate was quantified by measuring the production of H-Pro-Ile isobutylamide by the spectrophotometric assay of N-terminal proline.
1.25 mM of substrate were dissolved in 125 mM of citrate buffer (pH 5.5) containing 0.125 mg/ml of Tween 20. […] The solution was heated in a water bath and then the pigmented residues were re-dissolved in 1 ml of 1% pyrogallol in 33% water in acetone (wt./vol./vol.). The optical density of the solution was measured spectrophotometrically at 599 nm.

For assay [1], the system named is HTLV-III (strain RF) grown in C8166 cells. Put plainly: Activity against HIV (p24 antigen capture assay in infected C8166 cells). It counts as cell-based. Conditions: Human immunodeficiency virus 1, concentration that produces 50% protection, 72 hours, viral protein 24 antigen capture, read-out: I50 Activity against HIV. As for the experimental part: This assay uses HTLV-III (strain RF) grown in C8166 cells (a human CD4^+ T lymphoblastoid line) using RPM1 1640 medium with bicarbonate buffer, antibiotics and 10% fetal bovine serum.
A suspension of cells is infected with ten times the TCD50 of virus and adsorption allowed to proceed for 90 minutes at 37° C. The cells are washed three times with medium. The test is carried out in 6 ml tissue culture tubes, each tube containing 2×10^5 infected cells in 1.5 ml of medium. Test compounds are dissolved in either aqueous medium or dimethyl sulphoxide, according to solubility, and a 15 μl solution of the substance added. The cultures are incubated at 37° C. for 72 hours in a humidified atmosphere containing 5% carbon dioxide in air. The cultures are then centrifuged and an aliquot of the supernatant solubilized with Nonidet P40 and subjected to an antigen capture assay which uses a primary antiserum with particular reactivity against the viral protein 24 and a horseradish peroxidase detection system. Color generation is measured spectrophotometrically and plotted against the concentration of test substance. The concentration that produces 50% protection is determined. (I50).

Each structure is given as a SMILES string. Like-named read-outs stand apart in the source and are kept apart here. Where only a bound is given, the exact number is not on record here.

With `CC(C)(C)NC(=O)[C@@H]1C[C@@H]2CCCC[C@@H]2CN1C[C@@H](O)[C@H](Cc1ccccc1)NC(=O)[C@H](CC(N)=O)NC(=O)OCc1ccccc1` [Benzyloxycarbonyl, 2-[3(S)-[[N-(benzyloxycarbonyl)-L-asparaginyl]amino]-2(R)-hydroxy-4-phenylbutyl]-N-tert.butyl-decahydro-(4aS,8aS)-isoquinoline-3(S)-carboxamide], the IC50 on HIV protease (substrate S^1: succinyl-Ser-Leu-Asn-Tyr-Pro-Ile isobutylamide, read-out: I50 Inhibition of HIV protease, S^1) is under 24 nM; at HIV protease (substrate S^2: succinyl-Val-Ser-Gln-Asn-Phe-Pro-Ile isobutylamide, read-out: I50 Inhibition of HIV protease, S^2) it was under 2.7 nM; in assay [1], 20 nM.

Regarding `CC(C)(C)NC(=O)[C@@H]1C[C@@H]2CCCC[C@@H]2CN1C[C@@H](O)[C@H](Cc1ccccc1)NC(=O)[C@H](CC(N)=O)NC(=O)c1ccc2ccccc2n1` [2-Quinolylcarbonyl, N-tert.butyl-decahydro-2-[2(R)-hydroxy-4-phenyl-3(S)-[[N-(2-quinolylcarbonyl)-L-asparaginyl]amino]butyl]-(4aS,8aS)-isoquinoline-3(S)-carboxamide], in assay [1], the IC50 is 2 nM.
